Measurements taken from paper PMC7927096, “Dipeptides of S-Substituted Dehydrocysteine as Artzyme Building Blocks: Synthesis, Complexing Abilities and Antiproliferative Properties” (International Journal of Molecular Sciences, 2021).
Counter-ions that a name gives are not always drawn. Like-named read-outs stand apart in the source and are kept apart here.

Tests used:
A549 (lung carcinoma) = assay: Antiproliferative activity, sulforhodamine B assay; format: cell-based, human; details: SRB, 72 h incubation, read-out: IC50 ± SD, A-549
Source text: (§1) Ten different human cancer cell lines (including drug-resistant sublines) and one non-tumorigenic murine fibroblasts cell line were used to determine antiproliferative activity of the tested compounds. The MDA-MB-231 (breast adenocarcinoma), UM-UC-3 (urinary bladder transitional cell carcinoma), LoVo (colorectal adenocarcinoma), LoVo^Dx (colorectal adenocarcinoma, doxorubicin-resistant) and Balb/3T3 (non-tumorigenic murine fibroblasts) were purchased from the American Type Culture Collection (ATCC; Rockville, USA). The MCF-7 (breast adenocarcinoma) and A549 (lung carcinoma) were purchased from European Collection of Authenticated Cell Cultures (ECACC; Porton Down, UK). The UM-UC-3^CDDP, UM-UC-3^GEM, UM-UC-3^VBL, and UM-UC-3^CDDP/GEM cell lines were established at Hirszfeld Institute of Immunology and Experimental Therapy of the Polish Academy of Sciences (HIIET, PAS, Wroclaw, Poland) by the continuous exposure to the increasing concentrations of corresponding cytostatics.
(§2) The Balb/3T3 and UM-UC-3 were cultured in Dulbecco’s Modified Eagle Medium (DMEM; Life Technologies, UK) supplemented with 10% (v/v) fetal bovine serum (FBS; GE Healthcare HyClone, Logan, USA) and 2 mM L-glutamine (Sigma-Aldrich, Poznań, Poland). The UM-UC-3^CDDP, UM-UC-3^GEM, UM-UC-^3VBL, and UM-UC-3^CDDP/GEM culture media were additionally supplemented with appropriate cytostatics: 2.5 µg/mL cisplatin (Accord, Warsaw, Poland) for UM-UC-3^CDDP, 500 nM gemcitabine (Sigma-Aldrich, Poznań, Poland) for UM-UC-3^GEM, 5 nM vinblastine (Sigma-Aldrich, Poznań, Poland) for UM-UC-3VBL, 2.5 µg/mL cisplatin and 500 nM gemcitabine for UM-UC-3^CDDP/GEM. The LoVo cell line was cultured in F-12K Nutrient Mixture (F-12K; Corning, Corning, USA), supplemented with 10% (v/v) FBS. LoVo^Dx culture medium was additionally supplemented with doxorubicin 100 ng/mL (Accord, Warsaw, Poland). The MCF-7 cell line was cultured in Eagle’s medium (HIIET, PAS, Wroclaw, Poland), supplemented with 10% (v/v) FBS (Sigma-Aldrich, Poznań, Poland), 2 mM L-glutamine, MEM non-essential amino acid solution 1% (v/v) (Sigma-Aldrich, Poznań, Poland), insulin 8 µg/mL (Sigma-Aldrich, Poznań, Poland). The MDA-MB-231 cell line was cultured in RPMI 1640 (HIIET, PAS, Wroclaw, Poland), supplemented with 10% (v/v) FBS (Sigma-Aldrich, Poznań, Poland) and 2 mM L-glutamine. The A 549 cell line was cultured in OptiMEM (HIIET, PAS, Wroclaw, Poland), supplemented with 5% (v/v) FBS (GE Healthcare HyClone, Logan, USA) and 2 mM L-glutamine. All culture media were supplemented with antibiotics—100 μg/mL streptomycin (Polfa Tarchomin, Warsaw, Poland) and 100 U/mL penicillin (Sigma-Aldrich, Poznań, Poland).
(§3) All cell lines were cultured in a humidified atmosphere at 37 °C with 5% (v/v) CO2 and passaged twice a week using EDTA-Trypsin solution (pH 8; HIIET, Wroclaw, Poland) as a detachment agent.
(§4) All compounds, for antiproliferative activity assessment, were stored at […] as 50 mM solutions in dimethyl sulfoxide (DMSO; Avantor Performance Materials, Gliwice, Poland).
(§5) The cells were seeded on 384-well plates (Greiner Bio One, Kremsmünster, Austria) at 1 × 10^3 cells/well density for A 549, UM-UC-3, UM-UC-3^CDDP, UM-UC-3^GEM, UM-UC-3^CVBL and UM-UC-3^CDDP/GEM cell lines. Other cell lines were seeded at 2 × 10^3 cells/well. After overnight incubation, compounds were applied at eight concentrations (ranging from 100 µM to 0.03 µM). After 72 h incubation, the sulforhodamine B (SRB) assay based on Skehan et al. was carried out with slight modifications. In brief, 50 µL of the medium was replaced with 30 µL/well of 25% (w/v) trichloroacetic acid (Avantor Performance Materials, Gliwice, Poland). After 1 h incubation at room temperature, plates were washed three times with tap water, and 20 µL of 0.1% (w/v) solution of sulforhodamine B (Sigma-Aldrich, Poznan, Poland) in 1% (v/v) acetic acid (Avantor Performance Materials, Gliwice, Poland) was added to each well. […]

[1] = test system: LoVo (colorectal adenocarcinoma); assay: Antiproliferative activity, sulforhodamine B assay; format: cell-based, human; details: SRB, 72 h incubation, read-out: IC50 ± SD, LoVo
Source text: as §1, §2, §3, §4, §5

[2] = test system: LoVo^DX (colorectal adenocarcinoma, doxorubicin-resistant); assay: Antiproliferative activity, sulforhodamine B assay; format: cell-based, human; details: SRB, 72 h incubation, read-out: IC50 ± SD, LoVo^DX
Source text: as §1, §2, §3, §4, §5

[3] = test system: MCF-7 (breast adenocarcinoma); assay: Antiproliferative activity, sulforhodamine B assay; format: cell-based, human; details: SRB, 72 h incubation, read-out: IC50 ± SD, MCF-7
Source text: as §1, §2, §3, §4, §5

[4] = test system: MDA-MB-231 (breast adenocarcinoma); assay: Antiproliferative activity, sulforhodamine B assay; format: cell-based, human; details: SRB, 72 h incubation, read-out: IC50 ± SD, MDA-MB-231
Source text: as §1, §2, §3, §4, §5

[5] = test system: UM-UC-3 (urinary bladder transitional cell carcinoma); assay: Antiproliferative activity, sulforhodamine B assay; format: cell-based, human; details: SRB, 72 h incubation, read-out: IC50 ± SD, UM-UC-3
Source text: as §1, §2, §3, §4, §5

[6] = test system: UM-UC-3^CDDP (cisplatin-resistant); assay: Antiproliferative activity, sulforhodamine B assay; format: cell-based, human; details: SRB, 72 h incubation, read-out: IC50 ± SD, UM-UC-3^CDDP
Source text: as §1, §2, §3, §4, §5

[7] = test system: UM-UC-3^CDDP/GEM (resistant to cisplatin and gemcitabine); assay: Antiproliferative activity, sulforhodamine B assay; format: cell-based, human; details: SRB, 72 h incubation, read-out: IC50 ± SD, UM-UC-3^CDDP/GEM
Source text: as §1, §2, §3, §4, §5

[8] = test system: UM-UC-3^GEM (gemcitabine-resistant); assay: Antiproliferative activity, sulforhodamine B assay; format: cell-based, human; details: SRB, 72 h incubation, read-out: IC50 ± SD, UM-UC-3^GEM
Source text: as §1, §2, §3, §4, §5

[9] = test system: UM-UC-3^VBL (vinblastine-resistant); assay: Antiproliferative activity, sulforhodamine B assay; format: cell-based, human; details: SRB, 72 h incubation, read-out: IC50 ± SD, UM-UC-3^VBL
Source text: as §1, §2, §3, §4, §5

[10] = test system: Balb/3T3 (non-tumorigenic murine fibroblasts); assay: Antiproliferative activity, sulforhodamine B assay; format: cell-based; details: SRB, 72 h incubation, non-tumorigenic line, read-out: IC50 ± SD, Balb/3T3
Source text: as §1, §2, §3, §4, §5

[11] = test system: ten diverse human cancer cells lines and murine non-tumorigenic cell line (Balb/3T3); assay: Antiproliferative screen, whole cell line panel (statements in words); format: cell-based; details: SRB; for antiproliferative activity (in words): across cell lines; for activity against resistant versus parent cell lines (in words): 10d: with exception of the line resistant to gemcitabine
Source text: as §1, §2, §3, §4, §5

[12] = set-up: method as in PMID 12031802; details: Cu(II) complex; cited from earlier work

Compound | IC50 (A549 (lung carcinoma); Homo sapiens, A549) | IC50 ([1]; Homo sapiens, LoVo) | IC50 ([2]; Homo sapiens, LoVo/DX) | IC50 ([3]; Homo sapiens, MCF7) | IC50 ([4]; Homo sapiens, MDA-MB-231) | IC50 ([5]; Homo sapiens, UMUC3) | IC50 ([6]; Homo sapiens) | IC50 ([7]; Homo sapiens) | IC50 ([8]; Homo sapiens) | IC50 ([9]; Homo sapiens) | IC50 ([10]; Mus musculus, BALB/3T3) | antiproliferative activity (in words) [11] | activity against resistant versus parent cell lines (in words) [11] | further results
[NH2][Pt]([NH2])([Cl])[Cl] [CDDP, cisplatin, reference compound] |  |  |  |  |  |  |  |  |  |  |  |  |  | IC50 (A549 (lung carcinoma)): 2.7 ± 1 µM; IC50 [1]: 4.4 ± 0.3 µM; IC50 [2]: 3.4 ± 0.2 µM; IC50 [3]: 6 ± 2.2 µM; IC50 [4]: 24.4 ± 4.8 µM; IC50 [5]: 2.4 ± 0.6 µM; IC50 [6]: 26.1 ± 1.8 µM; IC50 [7]: 25.1 ± 1.9 µM; IC50 [8]: 2.6 ± 0.2 µM; IC50 [9]: 2.3 ± 0.3 µM; IC50 [10]: 10.2 ± 4.8 µM
COC(=O)/C(=C/Sc1nc(-c2ccccc2)c[nH]1)NC(=O)CNC(=O)OC(C)(C)C [Compound 6b, Boc-Gly-ΔCys(S-4-phenylimidazole)-OMe] | 27.2 ± 7.7 µM | 32.4 ± 2.6 µM | > 100 µM | 31.8 ± 7.8 µM | 35 ± 10 µM | 23.1 ± 2.6 µM | 34.6 ± 3.6 µM | 32.5 ± 4 µM | 35.1 ± 2.8 µM | 33.8 ± 2.6 µM | 38.4 ± 3.5 µM |  |  | 
COC(=O)/C(=C/Sc1nc2cc(OC)ccc2o1)NC(=O)CNC(=O)OC(C)(C)C [Compound 6c, Boc-Gly-ΔCys(S-5-methoxybenzoxazole)-OMe] | 6.2 ± 1.4 µM | 8.7 ± 1.1 µM | 6.4 ± 0.4 µM | 5.3 ± 0.9 µM | 5 ± 0.8 µM | 7.2 ± 0.6 µM | 7.8 ± 0.7 µM | 8.6 ± 1.4 µM | 5.2 ± 0.6 µM | 6 ± 1.5 µM | 5.3 ± 1.2 µM | most potent representatives | equipotential towards both resistant and parent cell lines | 
COC(=O)/C(=C/Sc1nc2ccccc2s1)NC(=O)CNC(=O)OC(C)(C)C [Compound 6d, Boc-Gly-ΔCys(S-benzothiazole)-OMe] | 5.6 ± 0.9 µM | 6.7 ± 0.7 µM | 6.2 ± 0.6 µM | 4.5 ± 0.5 µM | 6.1 ± 0.6 µM | 4.6 ± 0.4 µM | 6.4 ± 0.4 µM | 6.2 ± 0.8 µM | 4.6 ± 0.5 µM | 4.9 ± 0.8 µM | 5.8 ± 0.9 µM | most potent representatives | equipotential towards both resistant and parent cell lines | 
COC(=O)/C(=C/Sc1nc[nH]n1)NC(=O)[C@H](Cc1ccccc1)NC(=O)OC(C)(C)C [Compound 7a, Boc-Phe-ΔCys(S-triazole)-OMe] | 60.7 ± 12.1 µM | 75.8 ± 6.5 µM | > 100 µM | 74.5 ± 5.8 µM | 53.3 ± 5.5 µM | 56 ± 5.7 µM | 67.7 ± 3.9 µM | 62.2 ± 5.3 µM | 65.2 ± 4.9 µM | 54.9 ± 3.5 µM | 19.7 ± 1.9 µM | markedly lower, if any, activity |  | 
COC(=O)/C(=C/Sc1nc(-c2ccccc2)c[nH]1)NC(=O)[C@H](Cc1ccccc1)NC(=O)OC(C)(C)C [Compound 7b, Boc-Phe-ΔCys(S-4-phenylimidazole)-OMe] | 12 ± 4 µM | 16.4 ± 1.7 µM | 23 ± 2.2 µM | 15.5 ± 2.5 µM | 15.2 ± 4.4 µM | 13.5 ± 4.5 µM | 19 ± 3.2 µM | 17.2 ± 2.1 µM | 19.9 ± 3.3 µM | 17.3 ± 1.7 µM | 7.6 ± 0.9 µM |  |  | 
COC(=O)/C(=C/Sc1nc2cc(OC)ccc2o1)NC(=O)[C@H](Cc1ccccc1)NC(=O)OC(C)(C)C [Compound 7c, Boc-Phe-ΔCys(S-5-methoxybenzoxazole)-OMe] | 4 ± 1.1 µM | 6.3 ± 0.5 µM | 4.5 ± 0.4 µM | 4.5 ± 0.4 µM | 7.1 ± 0.8 µM | 6.2 ± 0.8 µM | 6.8 ± 0.8 µM | 5.9 ± 0.4 µM | 7 ± 0.5 µM | 5.8 ± 0.6 µM | 5.3 ± 0.4 µM | most potent representatives | equipotential towards both resistant and parent cell lines | 
COC(=O)/C(=C/Sc1nc2ccccc2s1)NC(=O)[C@H](Cc1ccccc1)NC(=O)OC(C)(C)C [Compound 7d, Boc-Phe-ΔCys(S-benzothiazole)-OMe] | 6.6 ± 1.4 µM | 9.6 ± 0.9 µM | 8.6 ± 0.9 µM | 6.8 ± 0.5 µM | 10.8 ± 0.4 µM | 6.7 ± 1.4 µM | 11.2 ± 1.5 µM | 9.1 ± 1.2 µM | 8 ± 2.3 µM | 6.3 ± 1 µM | 3.1 ± 0.6 µM | most potent representatives | equipotential towards both resistant and parent cell lines | 
COC(=O)/C(=C/Sc1nc2ccccc2s1)NC(=O)[C@@H](N)Cc1ccccc1 [Compound 10d, HCl Phe-ΔCys(S-benzothiazole)-OMe] | 14 ± 5.6 µM | 70.3 ± 21.5 µM | 33.1 ± 9 µM | 22 ± 4.5 µM | 24.4 ± 3 µM | 30.5 ± 3.7 µM | 16.6 ± 2.5 µM | 25.3 ± 8 µM | 67.8 ± 9.6 µM | 9.4 ± 2.2 µM | 42.2 ± 9.3 µM |  | more effective against resistant cell lines | 
NCC(=O)N/C(=C\c1ccccc1)C(=O)O [Gly(Z)ΔPhe] |  |  |  |  |  |  |  |  |  |  |  |  |  | logβ of the analogous species with {N-NH2, Namide} binding mode [12]: 2.19
